Values of other authors, collected in patent US20050148589A1, “Compositions of a cyclooxygenase-2 selective inhibitor and a neurotrophic factor-modulating agent for the treatment of central nervous system mediated disorders” (Pharmacia & Upjohn Company LLC, priority 2003, published 2005).

What was measured:
[1] = system: mRNA levels of various neurotrophic factors, including nerve growth factor (NGF), transforming growth factor (beta), and S100B in the central nervous system; conditions: treatment with Neotrofin
[2] = system: animal models of cognitive decline, aging, neuroprotection, and spinal cord injury; conditions: pre-clinical studies
[3] = system: brain damage due to neuroexcitotoxins; conditions: in vivo

| Compound | mRNA levels of neurotrophic factors (NGF, TGF beta, S100B) in the central nervous system [1] | restoration of function in animal models [2] | prevention of brain damage due to neuroexcitotoxins [3] |
| --- | --- | --- | --- |
| O=C(CCn1cnc2c(=O)[nH]cnc21)Nc1ccc(C(=O)[O-])cc1.[K+] [Neotrofin] | elevated the mRNA levels of various neurotrophic factors | – | – |
| O=C(CCn1cnc2c(=O)[nH]cnc21)Nc1ccc(C(=O)[O-])cc1.[K+] [Leteprinim potassium] | – | restores function in animal models of cognitive decline, aging, neuroprotection, and spinal cord injury | shown to prevent brain damage due to neuroexcitotoxins |
